Values quoted from earlier work, collected in patent US4127531A, “Novel hexapeptides, intermediates therefor, and compositions and methods employing said hexapeptides” (priority 1977, dated 1978).

What was measured:
[1] = tested on: partially purified brain opiate receptor sites
rat = details: injected directly into the brain of the rat

Which results are given for “H-Tyr-Gly-Gly-Phe-Met-OH [methionine enkephalin]”?
binding to partially purified brain opiate receptor sites [1]: binds stereo-specifically; analgesic activity (rat): only weak analgesic agent of short duration
